Experimental data as given in US9540392B2, “Thienopyrimidines” (BAYER PHARMA AKTIENGESELLSCHAFT, priority 2012, dated 2017).

Target: T1, human full-length MKNK1 (Homo sapiens, UniProt Q9BUB5, T385D)
T1 construct: GST (N); purchased Carna Biosciences 02-145; host or cells: insect cells (baculovirus expression system)
Experiment: MKNK1 kinase high ATP assay (TR-FRET)
Format: biochemical
Conditions: 2 mM ATP, after preincubation with MKNK1; read-out: MKNK1 IC50 (MKNK1 high ATP)
Method in brief: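 Compound was preincubated 15 min at 22° C. with MKNK1 in 50 mM HEPES pH 7.5, 5 mM MgCl2, 1.0 mM DTT, then the reaction ran 30 min at 22° C. with 2 mM ATP and 0.06 μM biotinylated peptide (final).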

T1 sequence (Q9BUB5 1-424 isoform Q9BUB5-2 T344D): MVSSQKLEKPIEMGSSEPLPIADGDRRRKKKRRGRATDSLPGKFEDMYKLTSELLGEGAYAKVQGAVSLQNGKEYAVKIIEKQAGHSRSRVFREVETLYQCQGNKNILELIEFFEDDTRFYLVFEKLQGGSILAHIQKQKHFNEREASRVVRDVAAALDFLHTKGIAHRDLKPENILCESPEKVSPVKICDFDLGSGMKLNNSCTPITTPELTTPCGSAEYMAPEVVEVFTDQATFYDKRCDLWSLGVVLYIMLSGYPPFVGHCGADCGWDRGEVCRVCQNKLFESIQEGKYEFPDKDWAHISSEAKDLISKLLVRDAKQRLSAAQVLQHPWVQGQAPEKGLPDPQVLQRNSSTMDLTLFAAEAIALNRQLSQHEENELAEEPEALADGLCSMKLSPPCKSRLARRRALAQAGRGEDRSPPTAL

| Compound | IC50 |
| --- | --- |
| CC(C)Oc1cc2[nH]ncc2cc1Nc1ncnc2sc3c(c12)CCC(C(=O)N1CC2(CCO2)C1)C3 (racemic) [Example 259, (RS)-{4-[(6-Isopropoxy-1H-indazol-5-yl)amino]-5,6,7,8-tetrahydro[1]benzothieno[2,3-d]pyrimidin-7-yl}(1-oxa-6-azaspiro[3.3]hept-6-yl)methanone] | 1.9 nM |
| CC(C)Oc1cc2[nH]ncc2cc1Nc1ncnc2sc3c(c12)CCC(C(=O)N1CCC2(CC2)C1)C3 (racemic) [Example 261, (RS)-5-Azaspiro[2.4]hept-5-yl{4-[(6-isopropoxy-1H-indazol-5-yl)amino]-5,6,7,8-tetrahydro[1]benzothieno[2,3-d]pyrimidin-7-yl}methanone] | 2.3 nM |
| CCOc1cc2[nH]ncc2cc1Nc1ncnc2sc3c(c12)CCC(C(=O)O)C3 (racemic) [Example 210, (RS)-4-[(6-Ethoxy-1H-indazol-5-yl)amino]-5,6,7,8-tetrahydro[1]benzothieno[2,3-d]pyrimidine-7-carboxylic acid] | 73 nM |
| COc1cc2[nH]ncc2cc1Nc1ncnc2sc3c(c12)CCC(C(=O)N1CC2CC1CO2)C3 (mixture of isomers) [Example 262, {(7RS)-4-[(6-Methoxy-1H-indazol-5-yl)amino]-5,6,7,8-tetrahydro[1]benzothieno[2,3-d]pyrimidin-7-yl}[(1S,4S)-2-oxa-5-azabicyclo[2.2.1]hept-5-yl]methanone] | 6.1 nM |
| COc1cc2[nH]ncc2cc1Nc1ncnc2sc3c(c12)CCC(C(=O)N1C[C@H](O)[C@@H](O)C1)C3 (mixture of isomers) [Example 244, [(3R,4R)-3,4-Dihydroxypyrrolidin-1-yl]{(7RS)-4-[(6-methoxy-1H-indazol-5-yl)amino]-5,6,7,8-tetrahydro[1]benzothieno[2,3-d]pyrimidin-7-yl}methanone] | 0.4 nM |
| CCOc1cc2[nH]ncc2cc1Nc1ncnc2sc3c(c12)CCC(C(=O)N1CCCCC1)C3 (racemic) [Example 209, (RS)-{4-[(6-Ethoxy-1H-indazol-5-yl)amino]-5,6,7,8-tetrahydro[1]benzothieno[2,3-d]pyrimidin-7-yl}(piperidin-1-yl)methanone] | 0.7 nM |
| CCOc1cc2[nH]ncc2cc1Nc1ncnc2sc3c(c12)CCC(C(=O)N1CC=CC1)C3 (racemic) [Example 255, (RS)-2,5-Dihydro-1H-pyrrol-1-yl{4-[(6-ethoxy-1H-indazol-5-yl)amino]-5,6,7,8-tetrahydro[1]benzothieno[2,3-d]pyrimidin-7-yl}methanone] | 0.3 nM |
| COc1cc2[nH]ncc2cc1Nc1ncnc2sc3c(c12)CCC(C(=O)N1CC(C#N)C1)C3 (racemic) [Example 237, (RS)-1-({4-[(6-Methoxy-1H-indazol-5-yl)amino]-5,6,7,8-tetrahydro[1]benzothieno[2,3-d]pyrimidin-7-yl}carbonyl)azetidine-3-carbonitrile] | 0.3 nM |
| COc1cc2[nH]ncc2cc1Nc1ncnc2sc3c(c12)CCC(C(=O)N1CC2(COC2)C1)C3 (racemic) [Example 250, (RS)-{4-[(6-Methoxy-1H-indazol-5-yl)amino]-5,6,7,8-tetrahydro[1]benzothieno[2,3-d]pyrimidin-7-yl}(2-oxa-6-azaspiro[3.3]hept-6-yl)methanone] | 0.5 nM |
| CCOc1cc2[nH]ncc2cc1Nc1ncnc2sc3c(c12)CCC(C(=O)N1CCN2CCCCC2C1)C3 (racemic) [Example 270, {(7RS)-4-[(6-Ethoxy-1H-indazol-5-yl)amino]-5,6,7,8-tetrahydro[1]benzothieno[2,3-d]pyrimidin-7-yl}[(9aRS)-octahydro-2H-pyrido[1,2-a]pyrazin-2-yl]methanone] | 0.4 nM |
| CCOc1cc2[nH]ncc2cc1Nc1ncnc2sc3c(c12)CCC(C(=O)N(CC)CCO)C3 (racemic) [Example 231, (RS)-4-[(6-Ethoxy-1H-indazol-5-yl)amino]-N-ethyl-N-(2-hydroxyethyl)-5,6,7,8-tetrahydro[1]benzothieno[2,3-d]pyrimidine-7-carboxamide] | 0.3 nM |
| CCOc1cc2[nH]ncc2cc1Nc1ncnc2sc3c(c12)CCC(C(=O)N1CC2(COC2)C1)C3 (racemic) [Example 239, (RS)-{4-[(6-Ethoxy-1H-indazol-5-yl)amino]-5,6,7,8-tetrahydro[1]benzothieno[2,3-d]pyrimidin-7-yl}(2-oxa-6-azaspiro[3.3]hept-6-yl)methanone] | 0.4 nM |
| CCOc1cc2[nH]ncc2cc1Nc1ncnc2sc3c(c12)CCC(C(=O)N1CCC2(CC2)C1)C3 (racemic) [Example 274, (RS)-5-Azaspiro[2.4]hept-5-yl{4-[(6-ethoxy-1H-indazol-5-yl)amino]-5,6,7,8-tetrahydro[1]benzothieno[2,3-d]pyrimidin-7-yl}methanone] | 1 nM |
| O=C(C1CCc2c(sc3ncnc(Nc4ccc5[nH]ncc5c4)c23)C1)N1CCN(C2CCCC2)CC1 (racemic) [Example 131, (RS)-(4-cyclopentylpiperazin-1-yl)[4-(1H-indazol-5-ylamino)-5,6,7,8-tetrahydro[1]benzothieno[2,3-d]pyrimidin-7-yl]methanone] | 13.5 nM |
| CCOc1cc2[nH]ncc2cc1Nc1ncnc2sc3c(c12)CCC(C(=O)N(C)CCNC(=O)OC(C)(C)C)C3 (racemic) [Example 268, (RS)-tert-Butyl {2-[({4-[(6-ethoxy-1H-indazol-5-yl)amino]-5,6,7,8-tetrahydro[1]benzothieno[2,3-d]pyrimidin-7-yl}carbonyl)(methyl)amino]ethyl}carbamate] | 0.4 nM |
| CCOc1cc2[nH]ncc2cc1Nc1ncnc2sc3c(c12)CCC(C(=O)N1CCCC1)C3 (racemic) [Example 228, (RS)-{4-[(6-Ethoxy-1H-indazol-5-yl)amino]-5,6,7,8-tetrahydro[1]benzothieno[2,3-d]pyrimidin-7-yl}(pyrrolidin-1-yl)methanone] | 0.2 nM |

The next lines start with the values.

| IC50 | Compound |
| --- | --- |
| 7.5 nM | N#CC1CCCN(C(=O)C2CCc3c(sc4ncnc(Nc5ccc6[nH]ncc6c5)c34)C2)C1 (racemic) [Example 196, (RS)-1-{[4-(1H-indazol-5-yalmino)-5,6,7,8-tetrahydro[1]benzothieno[2,3-d]pyrimidin-7-yl]carbonyl}piperidine-3-carbonitrile] |
| 12.4 nM | Cn1ccc(NC(=O)C2CCc3c(sc4ncnc(Nc5ccc6[nH]ncc6c5)c34)C2)n1 (racemic) [Example 140, (RS)-4-(1H-indazol-5-ylamino)-N-(1-methyl-1H-pyrazol-3-yl)-5,6,7,8-tetrahydro[1]benzothieno[2,3-d]pyrimidine-7-carboxamide] |
| 9 nM | O=C(NCCN1CCOCC1)C1CCc2c(sc3ncnc(Nc4ccc5[nH]ncc5c4)c23)C1 (stereo not shown) [Example 42, 4-(1H-Indazol-5-ylamino)-N-[2-(morpholin-4-yl)ethyl]-5,6,7,8-tetrahydro[1] benzothieno [2,3-d]pyrimidine-7-carboxamide] |
| 15.9 nM | CCN1CCN(C(=O)C2CCc3c(sc4ncnc(Nc5ccc6[nH]ncc6c5)c34)C2)CC1 (racemic) [Example 119, (RS)-(4-ethylpiperazin-1-yl)[4-(1H-indazol-5-ylamino)-5,6,7,8-tetrahydro[1]benzothieno[2,3-d]pyrimidin-7-yl]methanone] |
| 3 nM | Cc1ccc(CNC(=O)C2CCc3c(sc4ncnc(Nc5ccc6[nH]ncc6c5)c34)C2)cc1 (stereo not shown) [Example 27, 4-(1H-Indazol-5-ylamino)-N-(4-methylbenzyl)-5,6,7,8-tetrahydro[1] benzothieno [2,3-d]pyrimidine-7-carboxamide] |
| 10.5 nM | O=C(NCCN1CCNC1=O)C1CCc2c(sc3ncnc(Nc4ccc5[nH]ncc5c4)c23)C1 (racemic) [Example 125, (RS)-4-(1H-indazol-5-ylamino)-N-[2-(2-oxoimidazolidin-1-yl)ethyl]-5,6,7,8-tetrahydro[1]benzothieno[2,3-d]pyrimidine-7-carboxamide] |
| 3.7 nM | O=C(NC1(c2ccccc2)CC1)C1CCc2c(sc3ncnc(Nc4ccc5[nH]ncc5c4)c23)C1 (racemic) [Example 147, (RS)-4-(1H-indazol-5-ylamino)-N-(1-phenylcyclopropyl)-5,6,7,8-tetrahydro[1]benzothieno[2,3-d]pyrimidine-7-carboxamide] |
| 9.5 nM | COCCN(C)C(=O)C1CCc2c(sc3ncnc(Nc4ccc5[nH]ncc5c4)c23)C1 (racemic) [Example 130, (RS)-4-(1H-indazol-5-ylamino)-N-(2-methoxyethyl)-N-methyl-5,6,7,8-tetrahydro[1]benzothieno[2,3-d]pyrimidine-7-carboxamide] |
| 26.4 nM | Cn1cc(NC(=O)C2CCc3c(sc4ncnc(Nc5ccc6[nH]ncc6c5)c34)C2)cn1 (racemic) [Example 146, (RS)-4-(1H-indazol-5-ylamino)-N-(1-methyl-1H-pyrazol-4-yl)-5,6,7,8-tetrahydro[1]benzothieno[2,3-d]pyrimidine-7-carboxamide] |
| 7.3 nM | CN(C)C1CCN(C(=O)C2CCc3c(sc4ncnc(Nc5ccc6[nH]ncc6c5)c34)C2)C1 (racemic) [Example 205, (RS)-[3-(dimethylamino)pyrrolidin-1-yl][4-(1H-indazol-5-ylamino)-5,6,7,8-tetrahydro[1]benzothieno[2,3-d]pyrimidin-7-yl]methanone] |
| 21.4 nM | COCCN1CCN(C(=O)C2CCc3c(sc4ncnc(Nc5ccc6[nH]ncc6c5)c34)C2)CC1 (racemic) [Example 133, (RS)-[4-(1H-indazol-5-ylamino)-5,6,7,8-tetrahydro[1]benzothieno[2,3-d]pyrimidin-7-yl][4-(2-methoxyethyl)piperazin-1-yl]methanone] |
| 2 nM | COc1cccc(CNC(=O)C2CCc3c(sc4ncnc(Nc5ccc6[nH]ncc6c5)c34)C2)c1 (stereo not shown) [Example 19, 4-(1H-indazol-5-ylamino)-N-(3-methoxybenzyl)-5,6,7,8-tetrahydro[1] benzothieno [2,3-d]pyrimidine-7-carboxamide] |
